Series [1] deals with K562. Put plainly: Antiproliferative activity against human K562 cells assessed as inhibition of cell growth incubated for 48 hrs by SRB assay. Format: functional, cell-based. Particulars: K562, 48 h.
In series [2] the test system is SK-LU-1. Put plainly: Antiproliferative activity against human SK-LU-1 cells assessed as inhibition of cell growth incubated for 48 hrs by SRB assay. Particulars: SK-LU-1, 48 h. The series is classed as functional, cell-based. Background: Sulforhodamine B stains cellular protein and so reports cell mass.
Series [3] deals with U-251. Briefly: Antiproliferative activity against human U-251 cells assessed as inhibition of cell growth incubated for 48 hrs by SRB assay. Particulars: U-251, 48 h. The series is classed as functional, cell-based.
Another series deals with HCT-15. Put plainly: Antiproliferative activity against human HCT-15 cells assessed as inhibition of cell growth at 10 uM incubated for 48 hrs by SRB assay relative to control. The series is classed as functional. Also noted: scale not given: the % may be the effect or the level left.
The test system of a further series is MCF7. Briefly: Antiproliferative activity against human MCF7 cells assessed as inhibition of cell growth at 10 uM incubated for 48 hrs by SRB assay relative to control. Further details: scale not given: the % may be the effect or the level left. Format: functional.
Series [4] concerns SK-LU-1. Put plainly: Antiproliferative activity against human SK-LU-1 cells assessed as inhibition of cell growth at 10 uM incubated for 48 hrs by SRB assay relative to control. The series is classed as functional. Also noted: scale not given: the % may be the effect or the level left.
Series [5] relates to K562. Put plainly: Antiproliferative activity against human K562 cells assessed as inhibition of cell growth at 10 uM incubated for 48 hrs by SRB assay relative to control. The series is classed as functional. Further details: scale not given: the % may be the effect or the level left.
The test system of the next series is PC-3. Put plainly: Antiproliferative activity against human PC-3 cells assessed as inhibition of cell growth at 10 uM incubated for 48 hrs by SRB assay relative to control. Format: functional. Further details: scale not given: the % may be the effect or the level left.
Series [6] is described as follows: Antiproliferative activity against African green monkey COS-7 cells assessed as inhibition of cell growth at 10 uM incubated for 48 hrs by SRB assay relative to control. The series is classed as toxicity, cell-based. As to conditions: chlorocebus aethiops, read-out: Activity.
In series [7] the test system is U-251. Briefly: Antiproliferative activity against human U-251 cells assessed as inhibition of cell growth at 10 uM incubated for 48 hrs by SRB assay relative to control. Format: functional. Further details: scale not given: the % may be the effect or the level left.

Experimental findings from ChEMBL document CHEMBL5143595, “Expanding the structure-activity relationship of cytotoxic diphenyl macrocycles” (Bioorg Med Chem Lett, 2022) are described below.

One may read the IC50 as the midpoint of a concentration-inhibition curve. Turning to `CCCCCCCCCCCCNC(=O)CN1CCCCN(CC(=O)NC(C)(C)C)C(=O)c2cccc(c2)-c2cccc(c2)C1=O`, the results for the IC50 with K562 [1], with SK-LU-1 [2] and in the series on U-251 [3] were 4 µM, 7.6 µM and 5.9 µM, respectively.
In the case of `CCCCCCCNC(=O)CN1CCCCN(CC(=O)NC(C)(C)C)C(=O)c2cccc(c2)-c2cccc(c2)C1=O`, the Activity with HCT-15 is reported as 77.9%; in the series with MCF7, 70.9%; in the series with SK-LU-1 [4], 88.6%; in the series with K562 [5], 79.3%; in the series with PC-3 it was 97.2%; with U-251 [7], 99.2%. In addition, the IC50 is 8.2 µM in the series on K562 [1] and 4.7 µM with SK-LU-1 [2]. Further, the inhibition at 48 h, 10 µM in series [6] amounted to 7.6%.
On to `CCCCCCCCCCNC(=O)C(c1ccoc1)N1CCCCN(CC(=O)NC(C)(C)C)C(=O)c2cccc(c2)-c2cccc(c2)C1=O` (racemic), for which the Activity in the series with HCT-15 is reported as 38.5%; in the series with MCF7 it was 29.5%; in the series on SK-LU-1 [4], 18.8%; in the series with K562 [5], 36.6%; in the series with PC-3, 35%; in the series on U-251 [7] it was 27.5%. Moreover, the inhibition at 48 h, 10 µM in series [6] is 22.8%.
As for `COc1cc([C@@H]2c3cc4c(cc3[C@@H](O[C@@H]3O[C@@H]5CO[C@@H](C)O[C@H]5[C@H](O)[C@H]3O)[C@H]3COC(=O)[C@H]23)OCO4)cc(OC)c1O` [ETOPOSIDE], the IC50 in the series with K562 [1] came out at 11.3 µM.
